Assay results published in patent publication US20250352561A1, “COMPOSITIONS AND METHODS USING TETRAHYDROCANNABINOL AND COMPOSITIONS INCLUDING SAME FOR TREATING INDICATIONS INVOLVING INFLAMMATION” (priority 2023, published 2025).
Where a name gives a salt, the structure may show the parent alone. Read-outs that look alike come from different tables or passages of the source.

Legend:
[1] = cited from earlier work
[2] = test system: plasma protein, mostly albumin; settings: concentration range of 20 to 2000 ng/mL, cited from earlier work
[3] = cited from earlier work; for Multiple dose elimination half-life: steady state
[4] = hepatic dysfunction vs healthy subjects, cross study comparison; cited from earlier work
[5] = test system: neuronal uptake of serotonin; settings: in vitro as well as in vivo; cited from earlier work
[6] = test system: histaminergic receptors; settings: in vitro; cited from earlier work
[7] = test system: alpha adrenergic receptors; settings: in vitro; cited from earlier work
[8] = test system: beta adrenergic receptors; settings: in vitro; cited from earlier work
[9] = test system: muscarinic receptors; settings: in vitro; cited from earlier work
[10] = test system: dopaminergic receptors; settings: in vitro; cited from earlier work
[11] = target: sigma-1 non-opioid receptor (Homo sapiens, UniProt Q99720); settings: compared with all pharmaceutical chemicals tested so far; cited from earlier work
[12] = cited from earlier work; remark: listed apart in the source
[13] = test system: serotonin uptake; settings: in vitro, rats; cited from earlier work
[14] = test system: norepinephrine reuptake; settings: in vitro, rats; cited from earlier work
[15] = test system: COVID-19 patients who required supplemental oxygen; assay: Retrospective clinical study of dronabinol plus standard of care in hospitalized COVID-19 patients requiring oxygen (Example 1); assay type: in vivo, human
[16] = cited from earlier work; remark: listed apart in the source
[17] = test system: cytokine storm; settings: cited from earlier work
[18] = fasted, n=34, cited from earlier work
[19] = in vivo; cited from earlier work
[20] = test system: COVID-19-positive patients hospitalized for hypoxia; assay: Comparative analysis of dronabinol alone vs dronabinol plus fluvoxamine in COVID-19-positive patients hospitalized for hypoxia (Example 8, Table 6)
Experimental: From October 2020 through December of 2020 a single infectious disease specialist treated consecutive adult COVID-19-positive patients hospitalized for hypoxia with oral dronabinol in addition to then current standard of care which consisted of ceftriaxone, azithromycin, dexamethasone, remdesivir, subcutaneous heparin, and convalescent plasma in addition to respiratory support per standard ICU protocols. Nine patients received 2.5 mg twice orally daily and 68 patients received 5 mg orally twice daily. A retrospective control group of consecutively treated COVID-19-positive patients hospitalized for hypoxia from June 2020 through August 2020, was treated with the same standard of care.
15, 2021, twelve consecutive un-vaccinated COVID-19-positive patients hospitalized for hypoxia were treated by a single physician. They received current standard of care which consisted of ceftriaxone, azithromycin, dexamethasone, remdesivir, and Eliquis in addition to respiratory support per standard ICU protocols. […] One patient was excluded from analysis due to pre-COVID-19 oxygen dependence, and because they were still in the hospital as of this writing on their twelfth hospital day.

[21] = human, in vivo; cited from earlier work

Chain of sigma-1 non-opioid receptor (Q99720 whole entry): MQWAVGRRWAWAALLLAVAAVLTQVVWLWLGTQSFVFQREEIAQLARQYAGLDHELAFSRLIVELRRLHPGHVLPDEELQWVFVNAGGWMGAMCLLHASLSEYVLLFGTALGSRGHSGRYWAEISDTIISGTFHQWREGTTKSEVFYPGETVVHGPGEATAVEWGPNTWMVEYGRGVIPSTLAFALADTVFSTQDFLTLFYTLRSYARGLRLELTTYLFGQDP

For `CCCCCc1cc(O)c2c(c1)OC(C)(C)[C@@H]1CCC(CO)=C[C@@H]21` [11-OH-delta-9-THC], the “Plasma concentration of principal active metabolite relative to Δ9-THC” value ([1]; plasma) is given as “approximately equal concentrations”.

For `COCCCC/C(=N\OCCN)c1ccc(C(F)(F)F)cc1` [fluvoxamine, 2-[(E)-[5-methoxy-1-[4-(trifluoromethyl)phenyl]pentylidene]amino]oxyethanamine], the “Bound to plasma protein” value [2] is given as “Approximately 80%”, the “Bound to plasma protein” value ([2]; listed as Fluvoxamine) is given as 80% and the Reduction of clearance ([3]; elderly patients) is given as “about 50%”. The “Multiple dose elimination half-life” value ([3]; elderly, 50 mg) was 17.4 h, the “Multiple dose elimination half-life” value ([3]; elderly, 100 mg) was 25.9 h and the “Multiple dose elimination half-life” value ([3]; young subjects, 50 mg) was 13.6 h. The “Multiple dose elimination half-life” value ([3]; young subjects, 100 mg) was 15.6 h, the Decrease in clearance [4] was 30% and the Serotonin reuptake inhibition [5] was “potent serotonin reuptake inhibitor”. For the same compound, the “Affinity for histaminergic receptors” value [6] was “no significant affinity”, the “Affinity for alpha adrenergic receptors” value [7] was “no significant affinity” and the “Affinity for beta adrenergic receptors” value [8] was “no significant affinity”. The “Affinity for muscarinic receptors” value [9] was “no significant affinity”, the “Affinity for dopaminergic receptors” value [10] was “no significant affinity” and the “Agonistic sigma-1 binding affinity” value [11] was “strongest agonistic sigma-1 binding affinity”. For the same compound, the “Mean plasma half-life at steady state” value ([12]; human, in vivo, po) was 15.6 h and the “Excreted in urine unchanged” value ([12]; in vivo) was “Approximately 2%”.

In the case of `NCCO/N=C(\CCCC(=O)O)c1ccc(C(F)(F)F)cc1` [fluvoxamine acid], the “Share of urinary excretion products” value ([12]; fluvoxamine acid together with its N-acetylated analog) is listed as “about 60%”, the “Inhibition of serotonin uptake” value [13] is listed as “weak effect” and the “Potency relative to the parent compound (less potent)” value [13] is listed as 1-2 orders of magnitude. The Norepinephrine reuptake inhibition [14] was “inactive”.

For `CCCCCc1cc(O)c2c(c1)OC(C)(C)[C@@H]1CCC(C)=C[C@@H]21` [dronabinol, (−)-(6aR,10aR)-6,6,9-trimethyl-3-pentyl-6a,7,8,10a-tetrahydro-6H-benzo[c]-chromen-1-ol], the Deaths ([15]; among the 77 patients in the treatment group) is listed as 5, the “Average first peak C-reactive protein (CRP) levels, difference (lower in treatment group)” value ([15]; vs control, p-value of 0.07, not statistically significant) is listed as 14% and the “Duration of appetite stimulant effect” value ([16]; after administration) is listed as at least 24 h. For the same compound, the “Time to tolerance to cardiovascular and subjective adverse CNS effects” value ([16]; healthy male volunteers (N=12), 210 mg/day orally in divided doses for 16 days) was at most 12 days, the “Persistence of appetite stimulant effect” value ([16]; patients with AIDS, Δ9-THC capsules 2.5 mg/day to 20 mg/day) was “sustained for up to five months” and the Mortality ([17]; animal model of cytokine storm induced ARF and/or ARDS) was “decrease mortality”. For the same compound, the “Prevention of death of animals that received a fatal dose of the biotoxin” value ([17]; animal models) was “prevent the death of one hundred percent of all animals”, the “AUC (0-12), Mean (SD)” value ([18]; BID Dose 2.5 mg) was 2.88 (1.57) ng*hr/mL and the “Cmax, Mean (SD)” value ([18]; BID Dose 2.5 mg) was 1.32 (0.62) ng/mL. For the same compound, the “Median Tmax (range)” value ([18]; BID Dose 2.5 mg) was 1.00 (0.50-4.00) hr, the “AUC (0-12), Mean (SD)” value ([18]; BID Dose 5 mg) was 6.16 (1.85) ng*hr/mL and the “Cmax, Mean (SD)” value ([18]; BID Dose 5 mg) was 2.96 (1.81) ng/mL. For the same compound, the “Median Tmax (range)” value ([18]; BID Dose 5 mg) was 2.50 (0.50-4.00) hr, the “AUC (0-12), Mean (SD)” value ([18]; BID Dose 10 mg) was 15.2 (5.52) ng*hr/mL and the “Cmax, Mean (SD)” value ([18]; BID Dose 10 mg) was 7.88 (4.54) ng/mL. For the same compound, the “Median Tmax (range)” value ([18]; BID Dose 10 mg) was 1.50 (0.50-3.50) hr, the “Time for which low levels of metabolites are detected in urine and feces” value ([1]; following single dose administration) was “more than 5 weeks” and the “Oral dose recovered unchanged in the feces” value ([1]; in vivo, po) was “Less than 5%”. For the same compound, the “Administered dose reaching the systemic circulation” value ([1]; oral dose) was 10-20%, the “Absorbed after oral dose” value ([1]; single oral doses) was 90-95% and the “Initial (alpha) half-life” value ([1]; two-compartment model) was “about 4 hours”. The “Radio-labeled oral dose recovered from the feces” value ([1]; within 72 hours) was “about half”, the “Reported fatality from overdosage” value [19] was “has not had a reported fatality from overdosage” and the “# Survived” value ([20]; 2.5 mg Dronabinol, total 9 in group) was 8. For the same compound, the LOS ([20]; 5 mg Dronabinol, length of hospital stay) was 8.8 and the “# Survived” value ([20]; 5 mg Dronabinol, total 68 in group) was 64.

In the case of `COCCCC/C(=N\OCCN)c1ccc(C(F)(F)F)cc1` [fluvoxamine maleate], the “Time of maximum plasma concentrations at steady state” value [21] is listed as 3 to 8 h.

For `COCCCC/C(=N\OCCO)c1ccc(C(F)(F)F)cc1` [fluvoxamine ethanol], the “Share of urinary excretion products” value ([12]; fluvoxamine ethanol) is listed as “about 10%”.
